The results in this text go back to the supplement of paper PMC11061612.

The subject of assay [1] is C3A (Hepatocellular Carcinoma). The experiment in a line: Bliss excess, mean over the matrix (fraction); higher = more synergy. The method in brief:
(§1)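 Cell lines grown in DMEM/F12 or RPMI with 10% FBS were plated in 1536-well plates and held 24 hours at 37°C, 5% CO2 before 72 hours of exposure to two-drug dose matrices, with DMSO typically at 0.2%. CellTiter-Glo 2.0 luminescence gave viability, which was converted to inhibition. Vehicle wells were set to 0 and blank wells to 1. Combination Emax is the second-highest inhibition in the matrix, and Bliss excess is the observed combination effect minus the expected EA + EB − EA·EB, where EA and EB are the single-agent effects.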

Assay [2] has as its system COR-L23 (Non-Small Cell Lung Carcinoma). The description is as above. The method in brief: as §1
Assay [3] deals with DMS-273 (Small Cell Lung Carcinoma). Described as above. The method in brief: as §1
For assay [4], the system named is HCC2157 (Breast Carcinoma). The description is as above. The method in brief: as §1
In assay [5] the test system is HT-29 (Colorectal Carcinoma). The description is as above. The method in brief: as §1
For the next assay, the system named is NCI-H2595 (Mesothelioma). The assay is described as above. The method in brief: as §1
Another assay deals with RH-1 (Ewing's Sarcoma). The assay is described as above. The method in brief:
as §1

In assay [6] the test system is SW1783 (Low Grade Glioma). The description is as above. The method in brief: as §1
In assay [7] the test system is SW756 (Cervical Carcinoma). The assay is described as above. The method in brief:
as §1

Assay [8] relates to SW780 (Bladder Carcinoma). The description is as above. The method in brief: as §1
Assay [9] has as its system U-266 (Plasma Cell Myeloma). Described as above. The method in brief:
as §1

The subject of assay [10] is 697 (B-Lymphoblastic Leukemia). The experiment in a line: combination Emax (second highest fraction inhibited in the dose matrix, 72 h); higher = more inhibition; extreme values may be limits of the assay. The method in brief: as §1
Assay [11] concerns DMS-273 (Small Cell Lung Carcinoma). The assay is described as above. The method in brief:
as §1

The next assay concerns ES7 (Ewing's Sarcoma). The description is as above. The method in brief: as §1
Assay [12] concerns HPAC (Pancreatic Carcinoma). The description is as above. The method in brief: as §1
Assay [13] concerns JiyoyeP-2003 (Burkitt's Lymphoma). The description is as above. The method in brief: as §1
Assay [14] relates to KM-H2 (Hodgkin's Lymphoma). The assay is described as above. The method in brief: as §1
Assay [15] has as its system LU-99A (Non-Small Cell Lung Carcinoma). The description is as above. The method in brief: as §1
Assay [16] has as its system SUIT-2 (Pancreatic Carcinoma). The assay is described as above. The method in brief: as §1
Assay [17] concerns U-266 (Plasma Cell Myeloma). Described as above. The method in brief: as §1
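Throughout, for Bliss excess, mean over the matrix: after 72 h of two-drug dosing.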

Take `COc1nnc2ccc(N3CCC(c4ccc(OCCN5CCN(C)C(=O)[C@H]5C)cc4)CC3)nn12` [AZD5153] + C[C@@H]1COCCN1C2=NC(=NC(=C2)C3(CC3)[S@](=N)(=O)C)C4=C5C=CNC5=NC=C4 [AZD6738] (first compound max 1 µM, 7x7, partner max 10 µM): the Bliss excess was 0.0348 in [1]; -0.0016 in assay [2]; 0.0044 in assay [3]; -0.0086 in assay [4]; -0.0307 in [5]; 0.0346 in the assay with NCI-H2595 (Mesothelioma). Also, the Bliss excess in the assay with RH-1 (Ewing's Sarcoma) is 0.0071; in [6], 0.0235; in assay [7], 0.0204; in assay [8], -0.0052; in assay [9], -0.079. Further, the “combination Emax” value in assay [10] came to 1; in assay [11] it was 0.883; in the assay on ES7 (Ewing's Sarcoma) it was 0.952; in assay [12] it was 0.71; in assay [13], 0.95; in [14] it was 0.89. Also, the “combination Emax” value in [15] turned out to be 0.755; in assay [16], 0.671; in assay [17], 0.412.

In the case of `Cc1cc2ncnn2cc1Nc1ncc2c(n1)n(C1CCOCC1)c(=O)n2C` [AZD7648] + CN(C)CCCOc1ccc(-c2ccc3ncc4c(c3c2)n(C2CCOCC2)c(=O)n4C)cn1 [AZD0156] (first compound max 10 µM, 7x7, partner max 1 µM), the Bliss excess in assay [1] was -0.032; in assay [2], -0.0212; in assay [3] it was 0.05; in [4] it was 0.0081; in assay [5], 0.0289; in the assay with NCI-H2595 (Mesothelioma), -0.0373. Further, the Bliss excess with RH-1 (Ewing's Sarcoma) is 0.0087; in assay [6] it was -0.0078; in assay [7], 0.0076; in assay [8] it was -0.0069; in assay [9] it was 0.018. In addition, the “combination Emax” value stood at 0.486 in assay [10]; 0.411 in [11]; 0.433 in the assay with ES7 (Ewing's Sarcoma); 0.169 in assay [12]; 0.394 in assay [13]; 0.158 in assay [14]. Further, the “combination Emax” value in assay [15] was found to be 0.511; in assay [16] it was 0.109; in assay [17], 0.226.

As to `COc1cccc(OCCCN)c1-c1cc(Nc2cnc(C#N)cn2)n[nH]1` [Prexasertib] + Cc1cc2ncnn2cc1Nc1ncc2c(n1)n(C1CCOCC1)c(=O)n2C [AZD7648] (first compound max 1 µM, 7x7, partner max 10 µM), the Bliss excess was -0.0264 in assay [1]; 0.0184 in [2]; -0.0121 in [3]; -0.0315 in assay [4]; -0.0377 in [5]; -0.0172 in the assay on NCI-H2595 (Mesothelioma). Also, the Bliss excess was -0.0085 in the assay on RH-1 (Ewing's Sarcoma); -0.0281 in assay [6]; 0.0098 in assay [7]; 0.001 in [8]; -0.0518 in assay [9]. Moreover, the “combination Emax” value in assay [10] turned out to be 1; in assay [11] it was 0.909; in the assay with ES7 (Ewing's Sarcoma), 0.876; in [12], 0.816; in assay [13] it was 0.984; in assay [14] it was 0.924. The “combination Emax” value in [15] amounted to 0.804; in assay [16] it was 0.739; in [17], 0.713.

Consider `Cc1nc(Nc2ncc(C(=O)Nc3c(C)cccc3Cl)s2)cc(N2CCN(CCO)CC2)n1` [Dasatinib] + CC(=O)Nc1cccc(-n2c(=O)n(C3CC3)c(=O)c3c(Nc4ccc(I)cc4F)n(C)c(=O)c(C)c32)c1 [Trametinib] (first compound max 2 µM, 7x7, partner max 1 µM), for which the Bliss excess was -0.0059 in assay [1]; 0.0284 in assay [2]; -0.0922 in assay [3]; -0.0199 in assay [4]; 0.0984 in assay [5]; -0.0413 in the assay with NCI-H2595 (Mesothelioma). The Bliss excess with RH-1 (Ewing's Sarcoma) was -0.0353; in assay [6], -0.0712; in [7], -0.0659; in assay [8], 0.0848; in assay [9], 0.0609. The “combination Emax” value was 0.708 in [10]; 0.323 in assay [11]; 0.294 in the assay with ES7 (Ewing's Sarcoma); 0.893 in assay [12]; 0.715 in [13]; 0.234 in assay [14]. Also, the “combination Emax” value came out at 0.943 in [15], 0.671 in assay [16] and 0.832 in assay [17].

Regarding `Cc1c2c(nn1C)CSCc1cc(n(C)n1)CSc1cc(c3ccccc3c1)OCCCc1c(C(=O)O)n(C)c3c-2c(Cl)ccc13` [AZD5991] + Cn1cnc2c(F)c(Nc3ccc(Br)cc3Cl)c(C(=O)NOCCO)cc21 [Selumetinib] (first compound max 1 µM, 7x7, partner max 3 µM), the Bliss excess is -0.0476 in [1]; -0.0051 in [2]; -0.0137 in [3]; -0.0137 in assay [4]; -0.006 in assay [5]; 0.0101 in the assay with NCI-H2595 (Mesothelioma). For the same compound, the Bliss excess is -0.0127 in the assay on RH-1 (Ewing's Sarcoma); -0.0782 in assay [6]; -0.0058 in assay [7]; 0.0631 in assay [8]; 0.0068 in assay [9]. Moreover, the “combination Emax” value in assay [10] came out at 1; in assay [11], 0.987; in the assay on ES7 (Ewing's Sarcoma), 0.759; in assay [12], 0.673; in [13] it was 0.675; in [14], 0.191. Further, the “combination Emax” value in [15] came out at 0.379; in assay [16], 0.285; in assay [17] it was 0.985.

Take `COc1cccc(OCCCN)c1-c1cc(Nc2cnc(C#N)cn2)n[nH]1` [Prexasertib] + CCc1c2c(nc3ccc(O)cc13)-c1cc3c(c(=O)n1C2)COC(=O)[C@]3(O)CC [SN-38] (first compound max 1 µM, 7x7, partner max 0.3 µM): the Bliss excess in [1] was -0.112; in assay [2] it was 0.0388; in assay [3], 0.0356; in assay [4], 0.0649; in assay [5] it was -0.0022; in the assay with NCI-H2595 (Mesothelioma), 0.0211. Besides, the Bliss excess was -0.0177 in the assay with RH-1 (Ewing's Sarcoma); -0.0739 in assay [6]; -0.0542 in [7]; -0.0348 in [8]; -0.0412 in assay [9]. Further, the “combination Emax” value in assay [10] came out at 1; in assay [11], 0.997; with ES7 (Ewing's Sarcoma), 1; in [12], 0.887; in assay [13], 1; in assay [14] it was 0.944. Moreover, the “combination Emax” value worked out at 0.798 in [15], 0.713 in [16] and 0.703 in assay [17].
